Laboratory results published in patent US10280160B2, “Phthalazinone compounds and methods for the treatment of cystic fibrosis” (FLATLEY DISCOVERY LAB, LLC, priority 2013, dated 2019).

What follows are compounds tested against human F508del CFTR (Homo sapiens (Human), UniProt P13569, DEL508-508) (assay: CFTR-YFP High Throughput Assay (YFP halide flux, FRT cells)). Conditions: EMax normalized to the positive control; FRT cells expressing human F508del CFTR and YFP; read-out: % Efficacy.
human F508del CFTR, sequence (P13569 other isoform, or with tags, fused parts or gaps del F508-F508): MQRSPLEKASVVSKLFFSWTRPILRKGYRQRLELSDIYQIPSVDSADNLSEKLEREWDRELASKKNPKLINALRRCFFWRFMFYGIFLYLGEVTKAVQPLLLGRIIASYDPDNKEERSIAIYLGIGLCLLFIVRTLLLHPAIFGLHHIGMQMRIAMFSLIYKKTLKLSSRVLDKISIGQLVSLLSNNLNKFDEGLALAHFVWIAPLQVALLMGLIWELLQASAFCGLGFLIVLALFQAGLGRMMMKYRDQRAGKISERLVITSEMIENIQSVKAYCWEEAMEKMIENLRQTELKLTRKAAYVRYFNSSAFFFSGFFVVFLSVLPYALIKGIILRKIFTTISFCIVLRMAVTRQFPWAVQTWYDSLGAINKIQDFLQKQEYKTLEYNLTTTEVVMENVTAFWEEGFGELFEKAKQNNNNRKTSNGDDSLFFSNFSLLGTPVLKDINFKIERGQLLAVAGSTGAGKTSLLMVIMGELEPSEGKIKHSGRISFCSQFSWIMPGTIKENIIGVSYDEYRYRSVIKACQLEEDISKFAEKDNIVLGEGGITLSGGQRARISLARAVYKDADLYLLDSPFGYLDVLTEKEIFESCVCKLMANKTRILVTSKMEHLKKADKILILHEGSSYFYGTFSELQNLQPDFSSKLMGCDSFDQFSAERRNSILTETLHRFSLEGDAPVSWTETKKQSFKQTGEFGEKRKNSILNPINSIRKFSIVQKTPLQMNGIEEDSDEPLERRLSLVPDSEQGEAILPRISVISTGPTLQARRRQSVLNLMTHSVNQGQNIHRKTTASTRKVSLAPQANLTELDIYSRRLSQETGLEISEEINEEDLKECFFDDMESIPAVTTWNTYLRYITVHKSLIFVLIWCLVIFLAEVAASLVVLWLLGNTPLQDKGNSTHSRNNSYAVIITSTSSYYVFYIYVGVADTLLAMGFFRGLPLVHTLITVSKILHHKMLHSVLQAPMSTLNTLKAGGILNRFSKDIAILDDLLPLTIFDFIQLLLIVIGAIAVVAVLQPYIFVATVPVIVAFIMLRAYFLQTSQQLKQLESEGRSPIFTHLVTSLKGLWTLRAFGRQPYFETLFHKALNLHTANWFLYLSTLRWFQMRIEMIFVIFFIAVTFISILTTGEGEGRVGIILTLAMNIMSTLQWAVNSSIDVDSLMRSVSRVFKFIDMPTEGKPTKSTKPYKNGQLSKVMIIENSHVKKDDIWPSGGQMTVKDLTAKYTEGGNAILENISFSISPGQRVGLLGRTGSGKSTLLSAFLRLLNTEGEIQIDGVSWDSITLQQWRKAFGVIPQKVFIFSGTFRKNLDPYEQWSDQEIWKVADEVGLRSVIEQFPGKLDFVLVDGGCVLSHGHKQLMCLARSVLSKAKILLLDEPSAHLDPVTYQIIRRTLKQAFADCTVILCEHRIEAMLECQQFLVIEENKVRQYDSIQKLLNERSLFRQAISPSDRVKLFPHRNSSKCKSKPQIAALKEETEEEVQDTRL
Format: cell-based
Protocol: Assays for Detecting and Measuring the Effect of Compounds on F508del-CFTR Channels CFTR-YFP Assay-CFTR Corrector Protocol:
This protocol is designed to selectively screen small molecule compounds for F508del CFTR corrector activities in the YFP (yellow fluorescent protein) flux assay. In this protocol, the cells are incubated with testing compounds for 24 hours, washed with PBS, stimulated with forskolin and a standard potentiator, and fluorescence in each plate well is measured kinetically read on a 384-well plate reader, such as the Hamamatsu FDSS-6000.
YFP fluorescence intensity values are acquired at high speed before and after iodide buffer is injected to the assay cells. Iodide enters the cells via active CFTR channels in the plasma membrane, and quenches the YFP fluorescence. The rate of fluorescence quenching is proportionate to the total CFTR activity in the cell membrane. F508del CFTR correctors increase the number of CFTR molecules in the testing cell plasma membrane, and thereby accelerate YFP quenching.
This method was initially developed for bench top plate readers (Galietta, J, Jayaraman, S and Verkman, A S. Cell-based assay for high-throughput quantitative screening of CFTR chloride transport agonists. Am. J. Physiol. Cell Physiol. (2001), 281: C173), and was adapted to the HTS format (Sui J, Cotard S, Andersen J, Zhu P, Staunton J, Lee M, Lin S. Optimization of a Yellow fluorescent protein-based iodide influx high-throughput screening assay for cystic fibrosis transmembrane conductance regulator (CFTR) modulators. Assay Drug Dev Technol. (2010), 8: 656-668).
Fisher Rat Thyroid (FRT) cells stably expressing both human F508del CFTR and a halide-sensitive yellow fluorescent protein (YFP-H148Q/I152L 25,22) (Galietta et al. Am. J. Physiol Cell Physiol 281(5), C1734, 2001) were cultured on plastic surface in Coon's modified Ham's F12 medium supplemented with FBS 10%, L-glutamine 2 mM, penicillin 100 U/ml, and streptomycin 100 μg/ml. G418 (0.75-1.0 mg/ml) and zeocin (3.2 ug/ml) were used for selection of FRT cells expressing F508del CFTR and YFP. For primary screening, FRT cells were plated into 384-well black wall, transparent bottom microtiter plates (Costar; Corning Inc.) at a cell density of 20,000-40,000 per well. Test compound was applied to the cells at varying concentrations ranging from 2 nM-40 μM in either a 2-fold or 3-fold dilution series. Cells were incubated in a cell culture incubator at 37° C. with 5% CO2 for 24-26 h. Assay plates were washed with DPBS media (Thermo, cat # SH30028.02) to remove unbound cells and compound. Stimulation media (25 μL) containing 20 μM Forskolin & 30 μM P3 [6-(Ethyl-phenyl-sulfonyl)-4-oxo-1,4-dihydro-quinoline-3-carboxylic acid 2-methoxy-benzylamide] in Hams F-12 coon's modified media was added to the plate wells and incubated at room temperature for 60-120 min. 25 μL of HEPES-PBS-I buffer (10 mM HEPES, 1 mM MgCl2, 3 mM KCl, 1 mM CaCl2, 150 mM NaI) was then added and fluorescence quench curves (Excitation 500 nm/Emission 540 nm; exposure 136 ms) were immediately recorded on an FDSS-6000 plate reader (Hamamatsu). Quench rates were derived from least squares fitting of the data as described by Sui et al (2010).
CFTR-YFP Assay-CFTR Potentiator Protocol:
This protocol is designed to selectively screen small molecule compounds for F508del CFTR potentiator activities in the YFP (yellow fluorescent protein) flux assay. Such compounds act acutely to stimulate CFTR already expressed on the membrane surface. In this protocol, the cells are incubated at 27° C. for 24 hours to homogeneously boost F508del CFTR expression in the cell membrane (low temperature correction), washed with PBS, treated with test compound, and CFTR activity is stimulated with forskolin for 1-2 hr. Measurement of ion flux is initiated by addition of iodide-containing buffer, and YFP quenching is kinetically recorded using a 384-well plate reader, such as the Hamamatsu FDSS-6000. […]
`Cc1nc2ccc(N(C)C(=O)Cn3nc(-c4cccc(Cl)c4)c4ccc(OC(C)C)cc4c3=O)cc2o1` [Example 25, 2-(4-(3-chlorophenyl)-7-isopropoxy-1-oxophthalazin-2(1H)-yl)-N-methyl-N-(2-methylbenzo[d]oxazol-6-yl)acetamide] gave an Emax of over 80%.
Compound `Cc1nc2ccc(N(C)C(=O)Cn3nc(-c4cccc(Cl)c4)c4ccc(OC5CCCCC5)cc4c3=O)cc2o1` [Example 26, 2-(4-(3-chlorophenyl)-7-(cyclohexyloxy)-1-oxophthalazin-2(1H)-yl)-N-methyl-N-(2-methylbenzo[d]oxazol-6-yl)acetamide] has an Emax of over 80%.
Compound `Cc1nc2ccc(N(C)C(=O)Cn3nc(-c4cccc(F)c4)c4ccc(OC5CCOCC5)cc4c3=O)cc2o1` [Example 27, 2-(4-(3-fluorophenyl)-1-oxo-7-((tetrahydro-2H-pyran-4-yl)oxy)phthalazin-2(1H)-yl)-N-methyl-N-(2-methylbenzo[d]oxazol-6-yl)acetamide] has an Emax of over 80%.
`Cc1nc2ccc(N(C)C(=O)Cn3nc(-c4cccc(F)c4)c4ccc(OC5CCCCC5)cc4c3=O)cc2o1` [Example 28, 2-(7-(cyclohexyloxy)-4-(3-fluorophenyl)-1-oxophthalazin-2(1H)-yl)-N-methyl-N-(2-methylbenzo[d]oxazol-6-yl)acetamide] gave an Emax of over 80%.
`Cc1nc2ccc(N(C)C(=O)Cn3nc(-c4cccc(Cl)c4)c4ccc(OC5CCOCC5)cc4c3=O)cc2o1` [Example 29, 2-(4-(3-chlorophenyl)-1-oxo-7-((tetrahydro-2H-pyran-4-yl)oxy)phthalazin-2(1H)-yl)-N-methyl-N-(2-methylbenzo[d]oxazol-6-yl)acetamide] showed an Emax of over 80%.
`CCOc1cc2c(=O)n(CC(=O)N(C)c3ccc4nc(C)oc4c3)nc(-c3cccc(F)c3)c2cc1Cl` [Example 30] was tested, and the Emax was 30 to 80%.
`CCOc1cc2c(=O)n(CC(=O)N(C)c3ccc4nc(C)oc4c3)nc(-c3cccc(Cl)c3)c2cc1Cl` [Example 31, 2-(6-chloro-4-(3-chlorophenyl)-7-ethoxy-1-oxophthalazin-2(1H)-yl)-N-methyl-N-(2-methylbenzo[d]oxazol-6-yl)acetamide] gave an Emax of over 80%.
